Data published in patent publication US9499553B2 (CHUGAI SEIYAKU KABUSHIKI KAISHA, priority 2013, dated 2016).
Structures can show the parent of a compound that is named as a salt. Where two headings read alike, the source gives them in different places.

Columns and labels:
[1] = system: rat small-intestinal brush border membrane vesicles; test: Inhibitory effect on 33PO4 uptake into rat small-intestinal brush border membrane vesicles (rapid filtration method); format: biochemical; settings: 1 μM test compound; 33PO4 uptake into rat small-intestinal BBMVs, reacted for 60 seconds
Procedure: Test Example 1: Inhibitory Effect on ^33PO4 Uptake into Rat Small-Intestinal Brush Border Membrane Vesicles Brush border membrane vesicles (BBMVs) were prepared using the upper region of the small intestine of each Wistar female rat (4-5 weeks old). The preparation of BBMVs was performed according to the method of Murer et al. (Murer […]. Sodium/proton antiport in brush-border-membrane vesicles isolated from rat small intestine and kidney. 1976. J Am Soc Nephrol. 1998 January; 9 (1): 143-50). The ^33PO4 transport activity of the small-intestinal BBMVs was determined by the rapid filtration method. […] Then, ice-cold buffer C (110 mM NaCl, 1 mM KH2PO4, and 10 mM HEPES (pH 7.5)) was added to each reaction mixture, which was immediately suction-filtered through a Millipore filter. The filter was washed with buffer C, and each sample was then dissolved in a liquid scintillator. The amount of ^33PO4 uptake into BBMVs was measured using a liquid scintillation counter.

human NaPi-IIb = target: T1, human NaPi-IIb (Homo sapiens, UniProt O95436); test: Inhibitory effect on 33PO4 uptake into human NaPi-IIb-expressing CHO cells; format: cell-based
T1 construct: expressed in transfected cells
T1 sequence (O95436 1-690): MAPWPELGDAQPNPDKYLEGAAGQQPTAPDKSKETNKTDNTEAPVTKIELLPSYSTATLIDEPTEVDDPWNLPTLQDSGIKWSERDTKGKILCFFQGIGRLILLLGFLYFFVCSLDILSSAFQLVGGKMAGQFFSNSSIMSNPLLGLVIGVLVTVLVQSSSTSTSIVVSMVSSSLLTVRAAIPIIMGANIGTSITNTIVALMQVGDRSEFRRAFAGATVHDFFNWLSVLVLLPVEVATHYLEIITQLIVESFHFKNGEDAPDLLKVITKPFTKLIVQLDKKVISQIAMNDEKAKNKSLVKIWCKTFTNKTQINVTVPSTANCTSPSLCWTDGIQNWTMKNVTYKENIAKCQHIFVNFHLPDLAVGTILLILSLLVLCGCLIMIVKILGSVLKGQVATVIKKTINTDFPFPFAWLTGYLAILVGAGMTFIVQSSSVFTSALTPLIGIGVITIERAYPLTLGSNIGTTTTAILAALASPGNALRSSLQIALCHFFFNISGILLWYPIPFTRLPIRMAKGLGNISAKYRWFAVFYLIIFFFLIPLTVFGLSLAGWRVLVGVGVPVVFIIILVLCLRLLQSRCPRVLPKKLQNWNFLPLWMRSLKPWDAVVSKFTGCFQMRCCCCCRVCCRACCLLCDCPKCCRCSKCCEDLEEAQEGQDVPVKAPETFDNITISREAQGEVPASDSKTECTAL
Summary of the method: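 Uptake of ³³PO4 was measured by scintillation counting after ice-cold buffer A washes. Cells were CHO stably expressing human NaPi-IIb, seeded overnight, and exposed to ³³PO4 in buffer A at room temperature.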

[2] = read-out: IC50 against 33PO4 uptake into human NaPi-IIb-expressing cells

Row | Compound | IC50 (human NaPi-IIb; read-out: IC50) [µM] | IC50 (human NaPi-IIb; [2]) [µM] | Rate of uptake inhibition (%) (1 μM) [1]
1 | COc1nc(C#N)ncc1-c1cc(C(F)(F)F)ccc1NC(=O)C1=C(O)[C@@]2(C)CCCN2N(Cc2ccc(OCCN3CCOCC3)c(F)c2F)C1=O [Example 55] | 15.3 |  | 85
2 | C[C@]12CCCN1N(Cc1cccc(F)c1F)C(=O)C(C(=O)Nc1ccc(C(F)(F)F)cc1-c1cc(C#N)ccn1)=C2O [Example 45] | 13 |  | 73
3 | C[C@]12CCCN1N(Cc1cccc(F)c1)C(=O)C(C(=O)Nc1ccc(Br)c(F)c1)=C2O [Example 35] | 12.6 |  | 79
4 | C[C@]12CCCN1N(Cc1cccc(F)c1F)C(=O)C(C(=O)Nc1ccc(Br)c(Cl)c1)=C2O [Example 31] |  |  | 76
5 | CN1N(Cc2ccc(OCC[N+]34CCN(CC3)CC4)c(F)c2F)C(=O)C(C(=O)Nc2ccc(C(F)(F)F)cc2-c2cc(C(F)(F)F)ncn2)=C(O)C12CCCC2 [Example 415, 1-(2-(2,3-Difluoro-4-((10-hydroxy-6-methyl-8-oxo-9-((4-(trifluoromethyl)-2-(6-(trifluoromethyl)pyrimidin-4-yl)phenyl)carbamoyl)-6,7-diazaspiro[4.5]dec-9-en-7-yl)methyl)phenoxy)ethyl)-1,4-diazabicyclo[2.2.2]octan-1-ium formate] |  | 18.5 | 21
6 | C[C@]12CCCN1N(Cc1cccc(F)c1F)C(=O)C(C(=O)Nc1ccc(C(F)(F)F)cc1-c1cccc(C#N)c1F)=C2O [Example 46] | 14.1 |  | 71
7 | COc1cccc(-c2cc(C(F)(F)F)ccc2NC(=O)C2=C(O)[C@@]3(C)CCCN3N(Cc3cccc(F)c3F)C2=O)c1OC [Example 44] |  |  | 94
8 | COc1ccc(CN2C(=O)C(C(=O)Nc3cc(F)c(Br)c(F)c3)=C(O)[C@@]3(C)CCCN23)c(OC)c1 [Example 58] |  |  | 46
9 | COc1cccc(-c2cc(C(F)(F)F)ccc2NC(=O)C2=C(O)[C@@]3(C)CCCN3N(Cc3ccc(C#CCCCCO)c(F)c3F)C2=O)c1OC [Example 135] | 12.3 |  | 
10 | CN1N(Cc2ccc(OCCCCCOCCCO)c(F)c2F)C(=O)C(C(=O)Nc2ccc(C(F)(F)F)cc2-c2cc(C(F)(F)F)ncn2)=C(O)C12CCCC2 [Example 400] |  | 9.2 | 
11 | CN1N(Cc2ccc(OCCN3CCOC(=O)C3)c(F)c2F)C(=O)C(C(=O)Nc2ccc(C(F)(F)F)cc2-c2cc(C(F)(F)F)ncn2)=C(O)C12CCC2 [Example 337, 8-[[2,3-Difluoro-4-[2-(2-oxomorpholin-4-yl)ethoxy]phenyl]methyl]-5-hydroxy-9-methyl-7-oxo-N-[4-(trifluoromethyl)-2-[6-(trifluoromethyl)pyrimidin-4-yl]phenyl]-8,9-diazaspiro[3.5]non-5-ene-6-carboxamide] | 17 |  | 
12 | CN1N(Cc2ccc(OCCCCCOC[C@H](O)CO)c(F)c2F)C(=O)C(C(=O)Nc2ccc(C(F)(F)F)cc2-c2ccc(C(F)(F)F)nc2)=C(O)C12CCCC2 [Example 388] |  | 6.9 | 
13 | CSc1cc(-c2cc(C(F)(F)F)ccc2NC(=O)C2=C(O)[C@@]3(C)CCCN3N(Cc3cccc(F)c3F)C2=O)cnc1C#N [Example 113, (4aR)—N-[2-(6-Cyano-5-methylsulfanylpyridin-3-yl)-4-(trifluoromethyl)phenyl]-1-[(2,3-difluorophenyl)methyl]-4-hydroxy-4a-methyl-2-oxo-6,7-dihydro-5H-pyrrolo[1,2-b]pyridazine-3-carboxamide] | 15.5 |  | 
14 | CC(=O)N(C)CCN(C)CCOc1ccc(CN2C(=O)C(C(=O)Nc3ccc(C(F)(F)F)cc3-c3cc(C(F)(F)F)ncn3)=C(O)C3(CCC3)N2C)c(F)c1F [Example 354] |  | 26 | 
15 | CN1N(Cc2ccc(OCCN3CCOCC3)c(F)c2F)C(=O)C(C(=O)Nc2ccc(C(F)(F)F)cc2-c2ccc(C(F)(F)F)nc2)=C(O)C1(C)C [Example 314, 2-[[2,3-Difluoro-4-(2-morpholin-4-ylethoxy)phenyl]methyl]-5-hydroxy-1,6,6-trimethyl-3-oxo-N-[4-(trifluoromethyl)-2-[6-(trifluoromethyl)pyridin-3-yl]phenyl]pyridazine-4-carboxamide] | 11.8 |  | 
16 | CN1[C@@H](C(C)(C)C)C(O)=C(C(=O)Nc2ccc(Cl)cc2-c2cc(C#N)ncn2)C(=O)N1Cc1ccc(OCCN2CCOCC2)c(F)c1F [Example 272] | 19.5 |  | 

More lines, main results first:

Row | IC50 (human NaPi-IIb; read-out: IC50) [µM] | IC50 (human NaPi-IIb; [2]) [µM] | Compound | Rate of uptake inhibition (%) (1 μM) [1]
17 | 10.6 |  | COC(=O)c1cc(-c2cc(C(F)(F)F)ccc2NC(=O)C2=C(O)[C@@]3(C)CCCN3N(Cc3cccc(F)c3F)C2=O)nc(Cl)n1 [Example 98] | 53
18 | 6.4 |  | CSc1ncc(-c2cc(C(F)(F)F)ccc2NC(=O)C2=C(O)[C@@]3(C)CCC(C)(C)N3N(Cc3cccc(F)c3F)C2=O)cn1 [Example 62] | 73
19 | 7 |  | C[C@]12CCCN1N(Cc1cccc(F)c1)C(=O)C(C(=O)Nc1ccc(C(F)(F)F)cc1-c1cc(C(F)(F)F)ncn1)=C2O [Example 34] | 99
20 | 8.3 |  | Cc1cc(S(=O)(=O)N(C)C)ccc1-c1cc(C(F)(F)F)ccc1NC(=O)C1=C(O)[C@@]2(C)CCCN2N(Cc2cccc(F)c2F)C1=O [Example 50] | 79
21 | 10.3 |  | C[C@]12CCCN1N(Cc1cccc(F)c1F)C(=O)C(C(=O)Nc1ccc(C(F)(F)F)cc1-c1cnc(C#N)cn1)=C2O [Example 57] | 71
22 | 6.6 |  | C[C@]12CCCN1N(Cc1cccc(F)c1Br)C(=O)C(C(=O)Nc1ccc(Br)c(Cl)c1)=C2O [Example 41] | 84
23 | 9.5 |  | C[C@]12CCCN1N(Cc1ccc(OCCN3CCOCC3)c(F)c1F)C(=O)C(C(=O)Nc1ccc(C(F)(F)F)cc1-c1ncnc(C#N)c1Cl)=C2O [Example 53] | 72
24 | 2.8 |  | CSc1ncc(-c2cc(C(F)(F)F)ccc2NC(=O)C2=C(O)[C@@]3(C)CCCN3N(Cc3cccc(F)c3F)C2=O)cn1 [Example 96] | 83
25 | 5 |  | C[C@]12CCCN1N(Cc1cccc(F)c1Br)C(=O)C(C(=O)Nc1ccc(Br)c(C(F)(F)F)c1)=C2O [Example 42] | 67
26 | 2.8 |  | C[C@]12CCCN1N(Cc1cccc(F)c1F)C(=O)C(C(=O)Nc1ccc(Br)c(F)c1F)=C2O [Example 32] | 73
27 | 5.6 |  | CC1(C)CC[C@]2(C)C(O)=C(C(=O)Nc3ccc(C(F)(F)F)cc3-c3ccc(C(F)(F)F)nc3)C(=O)N(Cc3cccc(F)c3F)N12 [Example 61] | 71
28 | 5.4 |  | C[C@]12CCCN1N(Cc1cccc(F)c1F)C(=O)C(C(=O)Nc1ccc(C(F)(F)F)cc1-c1cnc(C#N)nc1)=C2O [Example 95] | 80
29 | 5.5 |  | C#Cc1ccc(CN2C(=O)C(C(=O)Nc3ccc(C(F)(F)F)cc3-c3cc(C(F)(F)F)ncn3)=C(O)[C@@]3(C)CCCN23)c(F)c1F [Example 126, (4aR)-1-[(4-Ethynyl-2,3-difluorophenyl)methyl]-4-hydroxy-4a-methyl-2-oxo-N-[4-(trifluoromethyl)-2-[6-(trifluoromethyl)pyrimidin-4-yl]phenyl]-6,7-dihydro-5H-pyrrolo[1,2-b]pyridazine-3-carboxamide] | 
30 | 4.2 |  | C[C@]12CCCN1N(Cc1ccccc1Cl)C(=O)C(C(=O)Nc1cc(F)c(Br)c(F)c1)=C2O [Example 219] | 
